Measured values reported in patent US20230077362A1 (CORTEVA AGRISCIENCE LLC, priority 2019, published 2023).
Where two headings read alike, the source gives them in different places.

Key:
Format in all cases: in vivo
[1] = test system: Beet Armyworm (Spodoptera exigua) ("BAW"), second instar larvae; test: Bioassay on beet armyworm (BAW), 128-well diet tray assay; details: Spodoptera exigua
Method in brief: (§1)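 Sealed trays, 25° C., 14:10 light:dark, 5–7 d. Per-well % mortality recorded, mean of eight wells reported.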

[2] = test system: Green Peach Aphid ("GPA") (Myzus persicae), wingless adult and nymph stages; test: Bioassay on green peach aphid (GPA), foliar spray on infested cabbage seedlings; details: for pest or weed control at 200 µg/mL: Myzus persicae, foliar, 72 h
Method: Certain molecules disclosed in this document were tested against GPA using procedures described in the following example. In the reporting of the results, the “GPA Rating Table” was used (See Table Section).
Cabbage seedlings grown in 3-inch pots, with 2-3 small (3-5 cm) true leaves, were used as test substrate. The seedlings were infested with 20-50 GPA (wingless adult and nymph stages) one day prior to chemical application. Four pots with individual seedlings were used for each treatment. Test compounds (2 mg) were dissolved in 2 mL of acetone/methanol (1:1) solvent, forming stock solutions of 1000 ppm test compound. […] A hand-held aspirator-type sprayer was used for spraying a solution to both sides of […] leaves until runoff. Reference plants (solvent check) were sprayed with the diluent only containing 20% by volume of acetone/methanol (1:1) solvent. Treated plants were held in a holding room for three days at approximately 25° C. and ambient relative humidity (RH) prior to grading. Evaluation was conducted by counting the number of live aphids per plant under a microscope.
Corrected % Control=100*(X−Y)/X • where • X=No. of live aphids on solvent check plants and • Y=No. of live aphids on treated plants
The results are indicated in the table entitled “Table ABC: Biological Results” (See Table Section).

[3] = test system: Cabbage Looper (Trichoplusia ni) ("CL"), second instar larvae; test: Bioassay on cabbage looper (CL), 128-well diet tray assay; details: Trichoplusia ni
Method in brief: as §1

[4] = read-out: BAW (Biological Results, rating)
[5] = read-out: GPA (Biological Results, rating)
[6] = read-out: CL (Biological Results, rating)

Compound | pest or weed control at 50 µg/cm2 ([1]; read-out: BAW rating) [%] | pest or weed control at 200 µg/mL ([2]; read-out: GPA rating) [%] | pest or weed control at 50 µg/cm2 ([3]; read-out: CL rating) [%] | pest or weed control at 50 µg/cm2 [1, 4] [%] | pest or weed control at 200 µg/mL [2, 5] [%] | pest or weed control at 50 µg/cm2 [3, 6] [%] | GPA rating (% control or mortality class) ([2]; Table ABC, species GPA, foliar spray on infested cabbage seedlings)
CC(C)c1ccc(N(C)C)cc1N1C(=O)CS/C1=N\C(=O)Nc1ccc(-c2ncn(-c3ccc(S(=O)(=O)C(F)(F)F)cc3)n2)cc1F [Compound J364, (Z)-1-(3-(5-(Dimethylamino)-2-isopropylphenyl)-4-oxothiazolidin-2-ylidene)-3-(2-fluoro-4-(1-(4-((trifluoromethyl)sulfonyl)phenyl)-1H-1,2,4-triazol-3-yl)phenyl)urea] | 50 to 100 | 0 to 80 | 50 to 100 |  |  |  | 
COCc1ccc(C)cc1N1C(=O)CS/C1=N\C(=O)Nc1ccc(-c2ncn(-c3ccc(OC(F)(F)F)cc3)n2)cc1F [Compound J66, (Z)-1-(2-Fluoro-4-(1-(4-(trifluoromethoxy)phenyl)-1H-1,2,4-triazol-3-yl)phenyl)-3-(3-(2-(methoxymethyl)-5-methylphenyl)-4-oxothiazolidin-2-ylidene)urea] |  |  |  | 50 to 100 | 0 to 80 | 50 to 100 | 
COCOc1cc(-c2ncn(-c3ccc(OC(F)(F)F)cc3)n2)ccc1NC(=O)/N=C1\SCC(=O)N1c1cc(N(C)C)ccc1C(C)C [Compound J172, (Z)-1-(3-(5-(Dimethylamino)-2-isopropylphenyl)-4-oxothiazolidin-2-ylidene)-3-(2-(methoxymethoxy)-4-(1-(4-(trifluoromethoxy)phenyl)-1H-1,2,4-triazol-3-yl)phenyl)urea] |  |  |  | 50 to 100 | 0 to 80 | 50 to 100 | 
Cc1ccc(COCC(F)(F)F)c(N2C(=O)CS/C2=N\C(=O)Nc2ccc(-c3ncn(-c4ccc(C(F)(F)F)cc4)n3)cc2F)c1 [Compound J168, (Z)-1-(2-Fluoro-4-(1-(4-(trifluoromethyl)phenyl)-1H-1,2,4-triazol-3-yl)phenyl)-3-(3-(5-methyl-2-((2,2,2-trifluoroethoxy)methyl)phenyl)-4-oxothiazolidin-2-ylidene)urea] |  |  |  | 50 to 100 | 0 to 80 | 50 to 100 | 
Cc1ccc(COCC(F)(F)F)c(N2C(=O)CS/C2=N\C(=O)Nc2ccc(-c3cn(-c4ccc(S(=O)(=O)C(F)(F)F)cc4)cn3)cc2F)c1 [Compound J647, (Z)-1-(2-Fluoro-4-(1-(4-((trifluoromethyl)sulfonyl)phenyl)-1H-imidazol-4-yl)phenyl)-3-(3-(5-methyl-2-((2,2,2-trifluoroethoxy)methyl)phenyl)-4-oxothiazolidin-2-ylidene)urea] | 50 to 100 | 0 to 80 | 50 to 100 |  |  |  | 
CCOCc1ccc(C)cc1N1C(=O)CS/C1=N\C(=O)Nc1ccc(-c2ncn(-c3ccc(OC(F)(F)F)cc3)n2)cc1F [Compound J180, (Z)-1-(3-(2-(Ethoxymethyl)-5-methylphenyl)-4-oxothiazolidin-2-ylidene)-3-(2-fluoro-4-(1-(4-(trifluoromethoxy)phenyl)-1H-1,2,4-triazol-3-yl)phenyl)urea] |  |  |  | 50 to 100 | 0 to 80 | 50 to 100 | 
Cc1cc(-c2ncn(-c3ccc(OC(F)(F)F)cc3)n2)ccc1NC(=O)/N=C1\SCC(=O)N1c1ccc(N(C)C)cc1C(C)C [Compound J113, (Z)-1-(3-(4-(Dimethylamino)-2-isopropylphenyl)-4-oxothiazolidin-2-ylidene)-3-(2-methyl-4-(1-(4-(trifluoromethoxy)phenyl)-1H-1,2,4-triazol-3-yl)phenyl)urea] |  |  |  | 50 to 100 | 0 to 80 | 50 to 100 | 
Cc1ccc(COCC(F)(F)F)c(N2C(=O)CS/C2=N\C(=O)Nc2ccc(-c3ncn(-c4ccc(OC(F)(F)F)cc4)n3)cc2Cl)c1 [Compound J194, (Z)-1-(2-Chloro-4-(1-(4-(trifluoromethoxy)phenyl)-1H-1,2,4-triazol-3-yl)phenyl)-3-(3-(5-methyl-2-((2,2,2-trifluoroethoxy)methyl)phenyl)-4-oxothiazolidin-2-ylidene)urea] |  |  |  | 50 to 100 | 0 to 80 | 50 to 100 | 
CC(C)c1ccc(N(C)C)cc1N1C(=O)CS/C1=N\C(=O)Nc1ccc(-c2ncn(-c3ccc(OC(F)(F)F)cc3)n2)cc1C(F)(F)F [Compound J116, (Z)-1-(3-(5-(Dimethylamino)-2-isopropylphenyl)-4-oxothiazolidin-2-ylidene)-3-(4-(1-(4-(trifluoromethoxy)phenyl)-1H-1,2,4-triazol-3-yl)-2-(trifluoromethyl)phenyl)urea] |  |  |  | 50 to 100 | 0 to 80 | 50 to 100 | 
CCc1cc(-c2ncn(-c3ccc(OC(F)(F)F)cc3)n2)ccc1NC(=O)/N=C1\SCC(=O)N1c1cc(C)ccc1COC [Compound J72, (Z)-1-(2-Ethyl-4-(1-(4-(trifluoromethoxy)phenyl)-1H-1,2,4-triazol-3-yl)phenyl)-3-(3-(2-(methoxymethyl)-5-methylphenyl)-4-oxothiazolidin-2-ylidene)urea] |  |  |  | 50 to 100 | 0 to 80 | 50 to 100 | 
Cc1ccc(COCC(F)(F)F)c(N2C(=O)CS/C2=N\C(=O)Nc2ccc(-c3ncn(-c4ccc(S(=O)(=O)C(F)(F)F)cc4)n3)cc2F)c1 [Compound J363, (Z)-1-(2-Fluoro-4-(1-(4-((trifluoromethyl)sulfonyl)phenyl)-1H-1,2,4-triazol-3-yl)phenyl)-3-(3-(5-methyl-2-((2,2,2-trifluoroethoxy)methyl)phenyl)-4-oxothiazolidin-2-ylidene)urea] | 50 to 100 | 0 to 80 | 50 to 100 |  |  |  | 
Cc1ccc(OCCC(F)(F)F)c(N2C(=O)CS/C2=N\C(=O)Nc2ccc(-c3ncn(-c4cccc(C(F)(F)F)c4)n3)cc2C)c1 [Compound J134, (Z)-1-(3-(5-Methyl-2-(3,3,3-trifluoropropoxy)phenyl)-4-oxothiazolidin-2-ylidene)-3-(2-methyl-4-(1-(3-(trifluoromethyl)phenyl)-1H-1,2,4-triazol-3-yl)phenyl)urea] |  |  |  | 50 to 100 | 0 to 80 | 50 to 100 | 
CNc1ccc(C(C)C)c(N2C(=O)CS/C2=N\C(=O)Nc2ccc(-c3ncn(-c4ccc(OC(F)(F)F)cc4)n3)cc2C)c1 [Compound J126, (Z)-1-(3-(2-Isopropyl-5-(methylamino)phenyl)-4-oxothiazolidin-2-ylidene)-3-(2-methyl-4-(1-(4-(trifluoromethoxy)phenyl)-1H-1,2,4-triazol-3-yl)phenyl)urea] |  |  |  | 50 to 100 | 0 to 80 | 50 to 100 | 
CCOc1ccc(C(C)C)c(N2C(=O)CS/C2=N\C(=O)Nc2ccc(-c3ncn(-c4ccc(OC(F)(F)F)cc4)n3)cc2F)c1 [Compound J191, (Z)-1-(3-(5-Ethoxy-2-isopropylphenyl)-4-oxothiazolidin-2-ylidene)-3-(2-fluoro-4-(1-(4-(trifluoromethoxy)phenyl)-1H-1,2,4-triazol-3-yl)phenyl)urea] |  |  |  |  | 0 to 80 |  | 
Cc1ccc(COCC(F)(F)F)c(N2C(=O)CS/C2=N\C(=O)Nc2ccc(-c3ncn(-c4ccc(C#N)cc4)n3)cc2F)c1 [Compound J289, (Z)-1-(4-(1-(4-Cyanophenyl)-1H-1,2,4-triazol-3-yl)-2-fluorophenyl)-3-(3-(5-methyl-2-((2,2,2-trifluoroethoxy)methyl)phenyl)-4-oxothiazolidin-2-ylidene)urea] |  |  |  | 50 to 100 | 0 to 80 | 50 to 100 | 
Cc1ccc(-c2ccccc2)c(N2C(=O)CS/C2=N\C(=O)Nc2ccc(-c3ncn(-c4ccc(OC(F)(F)F)cc4)n3)cc2F)c1 [Compound J785, (Z)-1-(2-Fluoro-4-(1-(4-(trifluoromethoxy)phenyl)-1H-1,2,4-triazol-3-yl)phenyl)-3-(3-(4-methyl-[1,1′-biphenyl]-2-yl)-4-oxothiazolidin-2-ylidene)urea] |  |  |  |  |  |  | D (No activity noticed in this bioassay)
CC(C)c1ccc(C#N)cc1N1C(=O)CS/C1=N\C(=O)Nc1ccc(-c2ncn(-c3ccc(OC(F)(F)F)cc3)n2)cc1F [Compound J76, (Z)-1-(3-(5-Cyano-2-isopropylphenyl)-4-oxothiazolidin-2-ylidene)-3-(2-fluoro-4-(1-(4-(trifluoromethoxy)phenyl)-1H-1,2,4-triazol-3-yl)phenyl)urea] |  |  |  |  | 0 to 80 |  | 
CCCc1ccc(C)cc1N1C(=O)CS/C1=N\C(=O)Nc1ccc(-c2ncn(-c3ccc(OC(F)(F)F)cc3)n2)cc1F [Compound J41, (Z)-1-(2-Fluoro-4-(1-(4-(trifluoromethoxy)phenyl)-1H-1,2,4-triazol-3-yl)phenyl)-3-(3-(5-methyl-2-propylphenyl)-4-oxothiazolidin-2-ylidene)urea] |  |  |  |  | 0 to 80 |  | 
